What is called IC50 is the point on the concentration scale where inhibition reaches its midpoint.

The target in the test is POLRMT (Homo sapiens (Human), UniProt O00411). The test can be described thus: homogeneous TR-FRET assay of mitochondrial transcription (inhibition of POLRMT). In kind it is biochemical. The conditions noted are these: 7.5 nM POLRMT, 15 nM TFB2M, 30 nM TFAM, 0.5 nM DNA template, 500 μM NTPs, 37° C. for 60 minutes. As to the method:
The ability of some compounds of the present invention to inhibit POLRMT were determined in a homogeneous TR-FRET Assay using high-throughput screening in a 384-well plate format. […] Detection of the product is facilitated by hybridization of two DNA-oligonucleotide probes to specific and adjacent sequences within the RNA product sequence. Upon annealing of the probes, two fluorophores are coupled directly to an acceptor nucleotide probe (ATTO647, 5′), or introduced via a coupled streptavidin with a biotinylated donor nucleotide probe (Europium cryptate) that is brought into sufficient proximity to serve as a fluorescence-donor-acceptor pair. Thus, a FRET signal at 665 nm is generated upon excitation at 340 nm.
The DNA template is restriction linearized proximal to the promotor 3′-end (pUC-LSP). […] No nucleotide triphosphate mix is added to negative control samples. Microplates with compounds to be tested in the assay are prepared from 10 mM compound stocks in 100% DMSO, equal amounts of DMSO without any compound are added to positive control and negative control samples.
During the incubation, a mix of the detection reagents is prepared in a buffer such that the enzymatic reaction is terminated due to chelating of Mg-ions and increased ionic strength, containing 50 mM Tris-HCl (pH 7.5), 700 mM NaCl, 20 mM EDTA, and 0.01% (w/v) Tween-20. Europium-streptavidin is pre-incubated with a 200-fold molar excess of a random sequence oligonucleotide to block unspecific binding of oligo, for two hours at ambient temperature in the dark. Afterwards, the blocked Europium-streptavidin is kept on ice until use.
At the end of the enzymatic reaction time, 5 μL detection oligo mix in the detection buffer is added, and assay plates are mixed and kept at ambient temperature for one hour, protected from light. The concentration of the Acceptor nucleotide oligo (e.g., ATTO647N-5′-[…]-3′) and Donor nucleotide oligo (e.g., bio-5′-[…](-bio)[…]-bio-3′) in each assay well is 1 nM, and 3 nM, respectively.
After incubation with oligo mix, 5 μL of pre-blocked Europium-streptavidin reagent is dispensed to each assay well, assay plates are again mixed and kept at ambient temperature for one hour, protected from light.
The generated signal is measured with BMG Pherastar microtiter plate reader with a TRF light unit, using excitation at 340 nm, an integration time of 200 μs, and a delay time of 100 μs, before detection at 620 nm and 665 nm. The ratio of donor- and acceptor-fluorescence is used as a measure of the generated transcript product (i.e. enzymatic activity).
Background: In TR-FRET formats the signal depends on donor and acceptor labels being close together.

POLRMT, sequence (O00411 42-1230): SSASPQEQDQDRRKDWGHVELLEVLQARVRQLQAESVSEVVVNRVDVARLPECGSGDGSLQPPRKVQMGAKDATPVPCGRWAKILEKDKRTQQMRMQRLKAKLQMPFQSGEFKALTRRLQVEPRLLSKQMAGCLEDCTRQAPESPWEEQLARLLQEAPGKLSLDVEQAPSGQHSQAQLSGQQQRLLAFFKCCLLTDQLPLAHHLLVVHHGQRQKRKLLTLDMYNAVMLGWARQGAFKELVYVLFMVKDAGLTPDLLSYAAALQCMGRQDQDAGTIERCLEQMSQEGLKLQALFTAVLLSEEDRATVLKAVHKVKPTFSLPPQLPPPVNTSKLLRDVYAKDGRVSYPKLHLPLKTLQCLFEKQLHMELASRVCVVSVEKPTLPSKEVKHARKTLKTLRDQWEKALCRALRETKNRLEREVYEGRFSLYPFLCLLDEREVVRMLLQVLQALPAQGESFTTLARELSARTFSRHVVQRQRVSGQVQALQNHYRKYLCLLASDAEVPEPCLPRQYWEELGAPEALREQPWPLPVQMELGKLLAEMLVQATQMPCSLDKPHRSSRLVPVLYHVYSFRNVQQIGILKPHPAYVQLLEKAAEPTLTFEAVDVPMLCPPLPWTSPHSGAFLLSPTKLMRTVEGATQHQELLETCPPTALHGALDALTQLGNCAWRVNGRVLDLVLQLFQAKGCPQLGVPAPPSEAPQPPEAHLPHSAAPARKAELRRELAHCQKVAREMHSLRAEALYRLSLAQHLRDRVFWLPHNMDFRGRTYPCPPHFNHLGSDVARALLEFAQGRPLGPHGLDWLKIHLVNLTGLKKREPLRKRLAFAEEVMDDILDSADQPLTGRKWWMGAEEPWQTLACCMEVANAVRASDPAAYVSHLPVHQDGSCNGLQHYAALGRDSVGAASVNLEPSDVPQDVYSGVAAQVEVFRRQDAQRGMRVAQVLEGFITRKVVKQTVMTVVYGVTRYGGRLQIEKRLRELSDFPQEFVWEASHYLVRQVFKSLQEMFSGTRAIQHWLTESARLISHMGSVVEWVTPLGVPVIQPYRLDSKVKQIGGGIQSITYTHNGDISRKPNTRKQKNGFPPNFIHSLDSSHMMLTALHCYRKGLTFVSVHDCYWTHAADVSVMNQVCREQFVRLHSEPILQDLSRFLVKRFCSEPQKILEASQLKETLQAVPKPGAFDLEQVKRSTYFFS

`Cc1ccccc1-c1cc(=O)oc2cc(CC(C)C(=O)N3CCC(C(=O)O)CC3)ccc12` (single isomer, unassigned) [Example 95, 1-(2-methyl-3-(2-oxo-4-(o-tolyl)-2H-chromen-7-yl)propanoyl)piperidine-4-carboxylic acid] showed a 50% inhibitory concentration (IC50) of 4000 nM.

`Cc1ccccc1-c1cc(=O)oc2cc(CC(C)C(=O)N3CCC[C@H](S(N)(=O)=O)C3)ccc12` (single isomer, unassigned) [Example 97] had an IC50 of 300 nM.

For the compound `Cc1ccccc1-c1cc(=O)oc2cc(CC(C)C(=O)N3CCC[C@H](S(N)(=O)=O)C3)ccc12` (single isomer, unassigned) [Example 98], the IC50 was 14000 nM.

As for `Cc1ccccc1-c1cc(=O)oc2cc(CC(C)C(=O)N3CC[C@H](C(=O)O)C3)ccc12` (single isomer, unassigned) [Example 99], the 50% inhibitory concentration (IC50) amounted to 400 nM.

Compound `Cc1ccccc1-c1cc(=O)oc2cc(CC(C)C(=O)N3CC[C@H](C(=O)O)C3)ccc12` (single isomer, unassigned) [Example 100] displayed an IC50 of 21000 nM.

For the compound `COC[C@@H](C(=O)N1CCC[C@H](C(=O)O)C1)N(C)c1ccc2c(-c3ccccc3C)cc(=O)oc2c1` (single isomer, unassigned) [Example 120], the IC50 stood at 21000 nM.

Take `COC[C@@H](C(=O)N1CCC[C@H](C(=O)O)C1)N(C)c1ccc2c(-c3ccccc3C)cc(=O)oc2c1` (single isomer, unassigned) [Example 121]: 300 nM corresponded to half-maximal inhibition (IC50).

Regarding `Cc1ccccc1-c1cc(=O)oc2cc(NCC(C)C(=O)O)ccc12` (single isomer, unassigned) [Example 154-1, 2-methyl-3-((2-oxo-4-(o-tolyl)-2H-chromen-7-yl)amino)propanoic acid], the IC50 came to 1000 nM.

As for `Cc1ccccc1-c1cc(=O)oc2cc(N(C)CC(C)C(=O)O)ccc12` (single isomer, unassigned) [Example 154-2], the midpoint of inhibition, the IC50, lay at 500 nM.

The compound `Cc1ccccc1-c1cc(=O)oc2cc(NCC(C)C(=O)O)ccc12` (single isomer, unassigned) [Example 155-1, 2-methyl-3-((2-oxo-4-(o-tolyl)-2H-chromen-7-yl)amino)propanoic acid] showed an IC50 of 500 nM.

`CC(=O)NC1CCCN(C(=O)c2ccc3c(-c4ccccc4C)cc(=O)oc3c2)C1` (single isomer, unassigned) [Example 175, N-(1-(2-oxo-4-(o-tolyl)-2H-chromene-7-carbonyl)piperidin-3-yl)acetamide] showed an IC50 of over 100000 nM.

`CC(=O)NC1CCCN(C(=O)c2ccc3c(-c4ccccc4C)cc(=O)oc3c2)C1` (single isomer, unassigned) [Example 176, N-(1-(2-oxo-4-(o-tolyl)-2H-chromene-7-carbonyl)piperidin-3-yl)acetamide]: the IC50 stood at 75000 nM.

As for `Cc1ccccc1-c1cc(=O)oc2cc(NC(C)C(N)=O)ccc12` (single isomer, unassigned) [Example 189, 2-((2-oxo-4-(o-tolyl)-2H-chromen-7-yl)amino)propanamide], the IC50 was 900 nM.

For the compound `Cc1ccccc1-c1cc(=O)oc2cc(NC(C)C(N)=O)ccc12` (single isomer, unassigned) [Example 190, 2-((2-oxo-4-(o-tolyl)-2H-chromen-7-yl)amino)propanamide], the IC50 was 800 nM.

In turn, `COCC(Cc1ccc2c(-c3ccccc3C)cc(=O)oc2c1)C(N)=O` (single isomer, unassigned) [Example 207, 3-methoxy-2-((2-oxo-4-(o-tolyl)-2H-chromen-7-yl)methyl)propanamide] returned an IC50 of 17000 nM.

Turning to `COCC(Cc1ccc2c(-c3ccccc3C)cc(=O)oc2c1)C(N)=O` (single isomer, unassigned) [Example 208, 3-methoxy-2-((2-oxo-4-(o-tolyl)-2H-chromen-7-yl)methyl)propanamide], it took 3000 nM to reach half-maximal inhibition (IC50).

Take `Cc1ccccc1-c1cc(=O)oc2cc(N(C)C)ccc12` [Example 01, 7-(dimethylamino)-4-(o-tolyl)-2H-chromen-2-one]: the 50% inhibitory concentration (IC50) amounted to 400 nM.

`CNC(=O)c1ccc2c(-c3ccccc3C)cc(=O)oc2c1` [Example 02, N-methyl-2-oxo-4-(o-tolyl)-2H-chromene-7-carboxamide] had a 50% inhibitory concentration (IC50) of 2000 nM.

The compound `Cc1ccc2c(-c3ccc(F)cc3Cl)cc(=O)oc2c1` [Example 03, 4-(2-chloro-4-fluorophenyl)-7-methyl-2H-chromen-2-one] showed an IC50 of 19000 nM.

For `CNCc1ccc2c(-c3ccc(F)cc3Cl)cc(=O)oc2c1` [Example 04, 4-(2-chloro-4-fluorophenyl)-7-((methylamino)methyl)-2H-chromen-2-one], the IC50 is over 100000 nM.

Compound `CN(Cc1ccc2c(-c3ccc(F)cc3Cl)cc(=O)oc2c1)C(=O)N1CCCCC1` [Example 05, N-((4-(2-chloro-4-fluorophenyl)-2-oxo-2H-chromen-7-yl)methyl)-N-methylpiperidine-1-carboxamide] had a 50% inhibitory concentration (IC50) of 4000 nM.

For `CN(C)C(=O)N(C)Cc1ccc2c(-c3ccc(F)cc3Cl)cc(=O)oc2c1` [Example 06, 1-((4-(2-chloro-4-fluorophenyl)-2-oxo-2H-chromen-7-yl)methyl)-1,3,3-trimethylurea], the IC50 stood at 3000 nM.

Take `CCOC(=O)[C@H]1CCCN(C(=O)N(C)Cc2ccc3c(-c4ccc(F)cc4Cl)cc(=O)oc3c2)C1` [Example 07, ethyl (S)-1-(((4-(2-chloro-4-fluorophenyl)-2-oxo-2H-chromen-7-yl)methyl)(methyl)carbamoyl)piperidine-3-carboxylate]: the IC50 is 7000 nM.

For `CN(Cc1ccc2c(-c3ccc(F)cc3Cl)cc(=O)oc2c1)C(=O)N1CCC[C@H](C(=O)O)C1` [Example 08, (S)-1-(((4-(2-chloro-4-fluorophenyl)-2-oxo-2H-chromen-7-yl)methyl)(methyl)carbamoyl)piperidine-3-carboxylic acid], the IC50 was determined as 1000 nM.

Take `Cc1ccccc1-c1cc(=O)oc2cc(CO)ccc12` [Example 09, 7-(hydroxymethyl)-4-(o-tolyl)-2H-chromen-2-one]: the IC50 was determined as 10000 nM.

`COCc1ccc2c(-c3ccccc3C)cc(=O)oc2c1` [Example 10, 7-(methoxymethyl)-4-(o-tolyl)-2H-chromen-2-one] gave a concentration for half-maximal inhibition (IC50) of 400 nM.

The compound `Nc1ccc2c(-c3ccc(F)cc3Cl)cc(=O)oc2c1` [Example 11, 7-amino-4-(2-chloro-4-fluorophenyl)-2H-chromen-2-one] showed an IC50 of 24000 nM.

In turn, `Cc1cc(O)c2c(-c3ccc(F)cc3)cc(=O)oc2c1` [Example 12, 4-(4-fluorophenyl)-5-hydroxy-7-methyl-2H-chromen-2-one] yielded an IC50 of over 100000 nM.

`O=c1cc(-c2ccc(F)cc2Cl)c2ccc(CO)cc2o1` [Example 13, 4-(2-chloro-4-fluorophenyl)-7-(hydroxymethyl)-2H-chromen-2-one]: the midpoint of inhibition, the IC50, lay at 10000 nM.

In turn, `CCOC(=O)/C(C)=C/c1ccc2c(-c3ccc(F)cc3Cl)cc(=O)oc2c1` [Example 14, ethyl (E)-3-(4-(2-chloro-4-fluorophenyl)-2-oxo-2H-chromen-7-yl)-2-methylacrylate] had an IC50 of 18000 nM.

Compound `COC(=O)C(C)Cc1ccc2c(-c3ccc(F)cc3Cl)cc(=O)oc2c1` (centres unmarked) [Example 15, methyl 3-(4-(2-chloro-4-fluorophenyl)-2-oxo-2H-chromen-7-yl)-2-methylpropanoate] returned an IC50 of 2000 nM.

`COCc1ccc2c(-c3ccc(F)cc3Cl)cc(=O)oc2c1` [Example 16, 4-(2-chloro-4-fluorophenyl)-7-(methoxymethyl)-2H-chromen-2-one]: half-maximal inhibition (IC50) required 1000 nM.

`C[C@@H](Cc1ccc2c(-c3ccc(F)cc3Cl)cc(=O)oc2c1)C(=O)N1CCCCC1` [Example 18, (S)-4-(2-chloro-4-fluorophenyl)-7-(2-methyl-3-oxo-3-(piperidin-1-yl)propyl)-2H-chromen-2-one]: the IC50 turned out to be 200 nM.

As for `C[C@H](Cc1ccc2c(-c3ccc(F)cc3Cl)cc(=O)oc2c1)C(=O)N1CCCCC1` [Example 19, (R)-4-(2-chloro-4-fluorophenyl)-7-(2-methyl-3-oxo-3-(piperidin-1-yl)propyl)-2H-chromen-2-one], the IC50 was 24000 nM.

For the compound `C[C@@H](Cc1ccc2c(-c3ccc(F)cc3Cl)cc(=O)oc2c1)C(=O)N(C)C` [Example 20, (S)-3-(4-(2-chloro-4-fluorophenyl)-2-oxo-2H-chromen-7-yl)-N,N,2-trimethylpropanamide], the midpoint of inhibition, the IC50, lay at 800 nM.

For the origin of these results see patent US20250326732A1 (Pretzel Therapeutics, Inc., priority 2021, published 2025).
